Measured values from patent publication US7253171B2 (Laboratorios Almirall, S.A., priority 2001, dated 2007).
Where two headings read alike, the source gives them in different places.

Tests used:
α4β7 integrin = molecular target: T1, α4β7 integrin (Homo sapiens, UniProt P13612+P26010); experiment: RPMI 8866 cell adhesion to mouse MAdCAM-1 (α4β7 binding assay); type: cell-based; details: RPMI 8866 cells, immobilized mouse MAdCAM-1
T1 construct: endogenous in cells; host or cells: RPMI 8866 cells
T1 sequence (P13612 34-1032): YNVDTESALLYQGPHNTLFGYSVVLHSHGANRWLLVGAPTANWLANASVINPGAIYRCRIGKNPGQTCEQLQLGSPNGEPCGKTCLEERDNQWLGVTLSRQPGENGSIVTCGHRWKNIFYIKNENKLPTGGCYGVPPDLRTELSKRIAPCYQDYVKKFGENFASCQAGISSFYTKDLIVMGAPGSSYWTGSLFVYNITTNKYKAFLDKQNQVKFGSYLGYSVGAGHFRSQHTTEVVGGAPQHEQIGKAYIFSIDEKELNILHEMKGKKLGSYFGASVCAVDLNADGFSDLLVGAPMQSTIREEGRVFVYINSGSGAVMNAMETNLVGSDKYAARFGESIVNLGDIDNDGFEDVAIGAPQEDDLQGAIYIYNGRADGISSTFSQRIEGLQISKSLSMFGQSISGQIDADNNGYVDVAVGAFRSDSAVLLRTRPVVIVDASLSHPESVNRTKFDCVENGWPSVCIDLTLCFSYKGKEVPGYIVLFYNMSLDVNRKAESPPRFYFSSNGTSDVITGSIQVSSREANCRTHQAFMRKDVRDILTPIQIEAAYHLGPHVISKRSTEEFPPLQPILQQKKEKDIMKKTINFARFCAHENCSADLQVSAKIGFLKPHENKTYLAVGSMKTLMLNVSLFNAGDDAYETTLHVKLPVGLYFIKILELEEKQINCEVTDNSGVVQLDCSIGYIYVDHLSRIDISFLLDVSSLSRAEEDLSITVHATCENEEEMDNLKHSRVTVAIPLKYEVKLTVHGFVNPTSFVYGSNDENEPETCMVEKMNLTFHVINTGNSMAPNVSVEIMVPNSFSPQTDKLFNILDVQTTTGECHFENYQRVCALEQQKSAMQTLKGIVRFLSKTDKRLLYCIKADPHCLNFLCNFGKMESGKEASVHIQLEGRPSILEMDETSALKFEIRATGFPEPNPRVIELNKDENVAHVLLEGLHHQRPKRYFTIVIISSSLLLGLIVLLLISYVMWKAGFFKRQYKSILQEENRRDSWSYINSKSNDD
T1 sequence (P26010 20-798): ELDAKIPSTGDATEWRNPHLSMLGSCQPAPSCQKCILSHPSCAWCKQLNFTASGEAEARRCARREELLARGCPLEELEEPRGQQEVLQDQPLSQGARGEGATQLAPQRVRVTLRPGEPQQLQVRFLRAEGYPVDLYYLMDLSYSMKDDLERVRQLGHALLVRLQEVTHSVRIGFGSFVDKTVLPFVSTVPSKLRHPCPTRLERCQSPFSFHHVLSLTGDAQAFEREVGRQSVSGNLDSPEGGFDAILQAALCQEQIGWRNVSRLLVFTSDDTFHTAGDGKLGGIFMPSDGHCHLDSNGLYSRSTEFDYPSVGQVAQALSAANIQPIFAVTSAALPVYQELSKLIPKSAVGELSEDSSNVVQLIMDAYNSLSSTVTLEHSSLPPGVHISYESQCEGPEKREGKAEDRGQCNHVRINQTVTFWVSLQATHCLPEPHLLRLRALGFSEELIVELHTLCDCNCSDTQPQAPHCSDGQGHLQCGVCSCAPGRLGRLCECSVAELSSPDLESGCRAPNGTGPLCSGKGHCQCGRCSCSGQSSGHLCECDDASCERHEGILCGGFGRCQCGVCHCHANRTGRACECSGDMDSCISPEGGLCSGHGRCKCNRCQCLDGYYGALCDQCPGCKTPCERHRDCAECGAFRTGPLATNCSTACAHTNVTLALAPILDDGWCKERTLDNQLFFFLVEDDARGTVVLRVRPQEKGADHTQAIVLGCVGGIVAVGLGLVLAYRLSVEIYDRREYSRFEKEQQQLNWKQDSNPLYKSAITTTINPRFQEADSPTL
Method: RPMI 8866 Cell Adhesion to Mouse MAdCAM-1 (α4β7 Binding Assay)
Recombinant mouse MAdCAM-1 was coated on a 96-well plate overnight. Unbound MAdCAM-1 was washed away and plates were blocked with 0,5% BSA. Cells were labelled with BCECF-AM and added to ligand-coated wells. Test compounds were added to the wells followed by RPMI 8866 and the adhesion assay was performed for 45 min at room temperature. Following incubation, the wells were emptied and washed. Inhibition of binding was measured by the quantity of fluorescence bound to the plate for each of the various concentrations of test compound, as well as for controls containing no test compound, with a Cytofluor 2300 fluorescence measurement system.

α4β1 integrin = molecular target: T2, α4β1 integrin (Homo sapiens, UniProt P05556+P13612); experiment: U-937 cell adhesion to human VCAM-1 (α4β1 binding assay); type: cell-based; details: U-937 cells, immobilized human VCAM-1; read-out: IC50 values in the α4β1 assays
T2 construct: endogenous in cells; host or cells: U-937 cells
Method: U-937 Cell Adhesion to Human VCAM-1 (α4β1 Binding Assay)
Recombinant human soluble VCAM-1 (R&D Systems Ltd., UK) at 2 μg/ml in PBS was immobilized overnight onto microtiter plates. Unbound VCAM-1 was washed away and VCAM-1 coated plates were blocked with bovine serum albumin (BSA) 2,5% in PBS for 2 h at room temperature. U-937 cells were labelled with 5-carboxyfluorescein diacetate (5-CFDA) in order to detect bound cells to the wells. Test compounds were added to the wells followed by U-937 cells and the adhesion assay was performed for 1 h at 37° C. Following incubation, the wells were emptied and washed. Inhibition of binding was measured by the quantity of fluorescence bound to the plate for each of the various concentrations of test compound, as well as for controls containing no test compound, with a Cytofluor 2300 fluorescence measurement system.

[1] = read-out: IC50 values in the α4β7
[2] = read-out: IC50 values in the α4β7 assays

T2 sequence (P05556 21-798, one chain of several): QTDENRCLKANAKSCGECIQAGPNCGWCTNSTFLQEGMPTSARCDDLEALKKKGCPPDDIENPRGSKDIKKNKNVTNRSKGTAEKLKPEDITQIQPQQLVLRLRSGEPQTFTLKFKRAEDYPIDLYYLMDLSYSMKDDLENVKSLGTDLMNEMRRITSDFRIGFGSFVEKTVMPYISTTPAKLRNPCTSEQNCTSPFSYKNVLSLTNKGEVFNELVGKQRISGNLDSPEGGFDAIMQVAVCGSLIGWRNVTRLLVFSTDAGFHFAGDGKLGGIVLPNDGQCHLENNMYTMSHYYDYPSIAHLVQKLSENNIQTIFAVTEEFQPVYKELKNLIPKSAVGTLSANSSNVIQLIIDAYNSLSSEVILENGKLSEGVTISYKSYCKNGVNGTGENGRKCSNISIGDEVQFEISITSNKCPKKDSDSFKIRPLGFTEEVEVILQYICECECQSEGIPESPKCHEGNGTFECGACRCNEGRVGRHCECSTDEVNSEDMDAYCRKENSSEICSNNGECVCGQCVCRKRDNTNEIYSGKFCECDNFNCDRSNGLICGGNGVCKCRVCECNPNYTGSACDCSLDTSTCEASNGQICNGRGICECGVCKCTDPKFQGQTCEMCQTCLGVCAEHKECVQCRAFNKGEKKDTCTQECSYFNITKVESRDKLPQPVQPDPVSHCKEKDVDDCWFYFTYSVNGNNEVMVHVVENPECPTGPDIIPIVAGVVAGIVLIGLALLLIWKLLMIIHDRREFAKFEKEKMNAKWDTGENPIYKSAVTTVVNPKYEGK

Row | IC50 (α4β1 integrin) | IC50 (α4β7 integrin; [2]) | Structure (SMILES) | IC50 (α4β7 integrin; [1])
1 | < 100 nM |  | CN1CCN(S(=O)(=O)c2ccccc2NC(=O)N[C@@H](Cc2ccc(NC(=O)c3c(Cl)cncc3Cl)cc2)C(=O)O)CC1 [Example 90, (S)-3-(4-{[1-(3,5-Dichloropyridin-4-yl)methanoyl]amino}phenyl)-2-{3-[2-(4-methylpiperazine-1-sulfonyl)phenyl]ureido}propionic acid] | < 100 nM
2 | < 100 nM | 1000 to 10000 nM | CN(C(=O)N[C@@H](Cc1ccc(NC(=O)c2c(Cl)cccc2Cl)cc1)C(=O)O)c1ccccc1S(=O)(=O)c1ccccc1 [Example 23, (S)-2-[3-(2-Benzenesulfonylphenyl)-3-methylureido]-3-[4-(2,6-dichlorobenzoylamino)phenyl]propionic acid] | 
3 | < 100 nM |  | COc1ccc(OC)c(S(=O)(=O)c2ccc(Cl)cc2NC(=O)N[C@@H](Cc2ccc(NC(=O)c3c(Cl)cncc3Cl)cc2)C(=O)O)c1 [Example 64, (S)-2-{3-[5-Chloro-2-(2,5-dimethoxybenzenesulfonyl)phenyl]ureido}-3-{4-[(3,5-dichloropyridine-4-carbonyl)amino]phenyl}propionic acid] | 
4 | < 100 nM |  | O=C(Nc1ccccc1S(=O)(=O)c1ccccc1)N[C@@H](Cc1ccc(Nc2nccc3cnccc23)cc1)C(=O)O [Example 122, (S)-2-[3-(2-Benzenesulfonylphenyl)ureido]-3-[4-([2,6]naphthyridin-1-ylamino)phenyl]propionic acid] | 
5 | < 100 nM |  | O=C(Nc1ccccc1S(=O)(=O)c1ccccc1)N[C@@H](Cc1ccc(OC(=O)c2c(Cl)cncc2Cl)cc1)C(=O)O [Example 116, 3,5-Dichloroisonicotinic acid 4-{(S)-2-[3-(2-benzenesulfonylphenyl)ureido]-2-carboxyethyl}phenyl ester] | 
6 | < 100 nM |  | O=C(Nc1ccccc1S(=O)(=O)N1CCCCC1)N[C@@H](Cc1ccc(Nc2nccc3ccncc23)cc1)C(=O)O [Example 130, (S)-3-[4-([2,7]Naphthyridin-1ylamino)-phenyl]-2-{3-[2-(piperidine-1-sulfonyl)phenyl]ureido}propionic acid] | 
7 | < 100 nM |  | O=C(Nc1cccnc1S(=O)(=O)c1ccccc1)N[C@@H](Cc1ccc(NC(=O)c2c(Cl)cccc2Cl)cc1)C(=O)O [Example 58, (S)-2-[3-(2-Benzenesulfonylpyridin-3-yl)ureido]-3-[4-(2,6-dichlorobenzoylamino)phenyl]propionic acid] | 
8 | < 100 nM | 1000 to 10000 nM | O=C(Nc1ccccc1S(=O)(=O)N1CCCCC1)N[C@@H](Cc1ccc(NC(=O)c2c(Cl)cccc2Cl)cc1)C(=O)O [Example 38, (S)-3-[4-(2,6-Dichlorobenzoylamino)phenyl]-2-{3-[2-(piperdine-1-sulfonyl)phenyl]ureido}propionic acid] | 
9 | < 100 nM |  | CC(C)(C)S(=O)(=O)c1ccccc1NC(=O)N[C@@H](Cc1ccc(NC(=O)c2c(Cl)cncc2Cl)cc1)C(=O)O [Example 94, (S)-3-(4-{[1-(3,5-Dichloropyridin-4-yl)methanoyl]amino}phenyl)-2-{3-[2-(2-methylpropane-2-sulfonyl)phenyl]ureido}propionic acid] | 
10 | < 100 nM |  | CN(C(=O)N[C@@H](Cc1ccc(NC(=O)c2c(Cl)cncc2Cl)cc1)C(=O)O)c1ccccc1S(=O)(=O)N1CCCCC1 [Example 88, (S)-3-(4-{[1-(3,5-Dichloropyridin-4-yl)methyanoyl]amino}phenyl)-2-{3-methyl-3-[2-(piperidine-1-sulfonyl)phenyl]ureido}propionic acid.] | 
11 | < 100 nM | 1000 to 10000 nM | CN(C(=O)N[C@@H](Cc1ccc(NC(=O)c2c(Cl)cccc2Cl)cc1)C(=O)O)c1ccccc1S(=O)(=O)N1CCCCC1 [Example 76, (S)-3-[4-(2,6-Dichlorobenzoylamino)phenyl]-2-{3-methyl-3-[2-(piperidine-1-sulfonyl)-phenyl]ureido}propionic acid] | 
12 | < 100 nM |  | O=C(Nc1ccccc1Sc1c(Cl)cncc1Cl)N[C@@H](Cc1ccc(NC(=O)c2c(Cl)cncc2Cl)cc1)C(=O)O [Example 98, (S)-3-(4-{[1-(3,5-Dichloropyridin-4-yl)methanoyl]amino}phenyl)-2-{3-[2-(3,5-dichloropyridin-4-ylsulfanyl)phenyl]ureido}propionic acid] | 

Row | Structure (SMILES) | IC50 (α4β1 integrin) | IC50 (α4β7 integrin; [2]) | IC50 (α4β7 integrin; [1])
13 | CCCN(C(=O)N[C@@H](Cc1ccc(NC(=O)c2c(Cl)cncc2Cl)cc1)C(=O)O)c1ccccc1C(=O)N(C)C1CCCCC1 [Example 82] | < 100 nM |  | < 100 nM
14 | CN(C1CCCCC1)S(=O)(=O)c1ccccc1NC(=O)N[C@@H](Cc1ccc(NC(=O)c2c(Cl)cccc2Cl)cc1)C(=O)O [Example 40] | < 100 nM | 1000 to 10000 nM | 
15 | CN(C(=O)c1ccccc1N(CC1CC1)C(=O)N[C@@H](Cc1ccc(NC(=O)c2c(Cl)cncc2Cl)cc1)C(=O)O)C1CCCCC1 [Example 83] | < 100 nM |  | < 100 nM
16 | CN1CCN(C(=O)Oc2ccc(C[C@H](NC(=O)Nc3ccccc3S(=O)(=O)c3ccccc3)C(=O)O)cc2)CC1 [Example 114, 4-Methylpiperazine-1-carboxylic acid 4-{(S)-2-[3-(2-benzenesulfonylphenyl)ureido]-2-carboxyethyl}phenyl ester] |  | 1000 to 10000 nM | 
17 | CN(C(=O)c1ccccc1NC(=O)N[C@@H](Cc1ccc(NC(=O)c2c(Cl)cccc2Cl)cc1)C(=O)O)C1CCCCC1 [Example 2] | < 100 nM |  | 
